Reference: patent publication US6737383B1, “Herbicidal oxadiazolidines” (priority 1999, dated 2004)

Assays:
[1] = test system: bedstraw; assay: Test B pre/postemergence bedstraw; format: in vivo, Galium aparine
In short: (§1)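 Test chemicals in a non-phytotoxic solvent mixture with surfactant were sprayed preemergence onto planted seeds and postemergence onto plants 2 to 18 cm tall (1- to 4-leaf stage). After twelve to sixteen days in a greenhouse, injury was visually rated against untreated controls from 0 (no effect) to 10 (complete control).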

[2] = test system: blackgrass; assay: Test B pre/postemergence blackgrass; format: in vivo, Alopecurus myosuroides
In short: as §1

[3] = test system: giant foxtail; assay: Test B pre/postemergence giant foxtail; format: in vivo, Setaria faberii
In short: as §1

[4] = test system: morningglory; assay: Test B pre/postemergence morningglory; format: in vivo, Ipomoea hederacea
In short: as §1

[5] = test system: pigweed; assay: Test B pre/postemergence pigweed; format: in vivo, Amaranthus retroflexus
In short: as §1

[6] = test system: rape; assay: Test B pre/postemergence rape; format: in vivo, Brassica napus
In short: as §1

[7] = test system: soybean; assay: Test B pre/postemergence soybean; format: in vivo, Glycine max
In short: as §1

[8] = test system: sugar beet; assay: Test B pre/postemergence sugar beet; format: in vivo, Beta vulgaris
In short: as §1

[9] = test system: velvetleaf; assay: Test B pre/postemergence velvetleaf; format: in vivo, Abutilon theophrasti
In short: as §1

[10] = test system: wheat; assay: Test B pre/postemergence wheat; format: in vivo, Triticum aestivum
In short: as §1

[11] = test system: wild oat; assay: Test B pre/postemergence wild oat; format: in vivo, Avena fatua
In short: as §1

[12] = test system: purple nutsedge; assay: Test B pre/postemergence purple nutsedge; format: in vivo, Cyperus rotundus
In short: as §1

[13] = test system: rice; assay: Test B flood test rice; format: in vivo, Oryza sativa
In short: (§2)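 Each value is a visual injury score relative to controls, with 10 meaning complete control and 0 no effect. Evaluation took place twelve to sixteen days after the 2-leaf-stage plants were treated and kept in the greenhouse.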

[14] = test system: smallflower flatsedge; assay: Test B flood test smallflower flatsedge; format: in vivo, Cyperus difformis
In short: as §2

[15] = test system: duck salad; assay: Test B flood test duck salad; format: in vivo, Heteranthera limosa
In short: as §2

[16] = test system: bamyardgrass; assay: Test B flood test barnyardgrass; format: in vivo, Echinochloa crus-galli
In short: as §2

[17] = Preemergence, Rate 62 g/ha, scale of 0 to 10 where 0 is no effect and 10 is complete control
[18] = Preemergence, Rate 250 g/ha, scale of 0 to 10 where 0 is no effect and 10 is complete control
[19] = Preemergence, Rate 500 g/ha, scale of 0 to 10 where 0 is no effect and 10 is complete control
[20] = Rate 62 g/ha, Postemergence, scale of 0 to 10 where 0 is no effect and 10 is complete control
[21] = Rate 125 g/ha, Postemergence, scale 0 to 10
[22] = Rate 125 g/ha, Preemergence, scale of 0 to 10 where 0 is no effect and 10 is complete control
[23] = Rate 500 g/ha, Postemergence, scale 0 to 10, 0 no effect, 10 complete control
[24] = Rate 62 g/ha, headed Pre-emergence (flood test species), scale 0 to 10 (0 no effect, 10 complete control)
[25] = Rate 125 g/ha, Pre-emergence, flood test species, scale 0 to 10 where 0 is no effect and 10 is complete control
[26] = Rate 250 g/ha, Pre-emergence, flood-test species, scale 0 to 10, 0 is no effect, 10 is complete control
[27] = Rate 500 g/ha, Pre-emergence, flood test species, scale 0 to 10 (0 no effect, 10 complete control)

## CC(C)N(C(=O)n1oc(=O)n(-c2cccnc2)c1=O)c1ccc(F)cc1 [Compound 234]
[1]; [17]
  Bedstraw plant response rating: 0
[1]; [18]
  Bedstraw plant response rating: 0
[1]; [19]
  Plant response rating, Bedstraw: 0
[1]; [20]
  Bedstraw plant response rating: 0
[1]; [21]
  Bedstraw plant response rating: 0
[1]; [22]
  Bedstraw plant response rating: 0
[1]; Rate 250 g/ha, Postemergence
  Plant response rating (0 to 10; 0 is no effect, 10 is complete control), Bedstraw: 0
[1]; [23]
  Bedstraw plant response rating: 0
[2]; [17]
  Blackgrass plant response rating: 0
[2]; [18]
  Blackgrass plant response rating: 0
[2]; [19]
  Plant response rating, Blackgrass: 0
[2]; [20]
  Blackgrass plant response rating: 0
[2]; [21]
  Blackgrass plant response rating: 0
[2]; [22]
  Blackgrass plant response rating: 0
[2]; Rate 250 g/ha, Postemergence
  Plant response rating (0 to 10; 0 is no effect, 10 is complete control), Blackgrass: 0
[2]; [23]
  Blackgrass plant response rating: 0
[3]; [17]
  Giant foxtail plant response rating: 0
[3]; [18]
  Giant foxtail plant response rating: 0
[3]; [19]
  Plant response rating, Giant foxtail: 0
[3]; [20]
  Giant foxtail plant response rating: 0
[3]; [21]
  Giant foxtail plant response rating: 0
[3]; [22]
  Giant foxtail plant response rating: 0
[3]; Rate 250 g/ha, Postemergence
  Plant response rating (0 to 10; 0 is no effect, 10 is complete control), Giant foxtail: 0
[3]; [23]
  Giant foxtail plant response rating: 0
[4]; [17]
  Morningglory plant response rating: 0
[4]; [18]
  Morningglory plant response rating: 0
[4]; [19]
  Plant response rating, Morningglory: 0
[4]; [20]
  Morningglory plant response rating: 0
[4]; [21]
  Morningglory plant response rating: 0
[4]; [22]
  Morningglory plant response rating: 0
[4]; Rate 250 g/ha, Postemergence
  Plant response rating (0 to 10; 0 is no effect, 10 is complete control), Morningglory: 1
[4]; [23]
  Morningglory plant response rating: 2
[5]; [17]
  Redroot pigweed plant response rating: 0
[5]; [18]
  Redroot pigweed plant response rating: 0
[5]; [19]
  Plant response rating, Redroot pigweed: 0
[5]; [20]
  Redroot pigweed plant response rating: 0
[5]; [21]
  Redroot pigweed plant response rating: 0
[5]; [22]
  Redroot pigweed plant response rating: 0
[5]; Rate 250 g/ha, Postemergence
  Plant response rating (0 to 10; 0 is no effect, 10 is complete control), Redroot pigweed: 0
[5]; [23]
  Redroot pigweed plant response rating: 0
[6]; [17]
  Rape plant response rating: 0
[6]; [18]
  Rape plant response rating: 0
[6]; [19]
  Plant response rating, Rape: 0
[6]; [20]
  Rape plant response rating: 0
[6]; [21]
  Rape plant response rating: 0
[6]; [22]
  Rape plant response rating: 0
[6]; Rate 250 g/ha, Postemergence
  Plant response rating (0 to 10; 0 is no effect, 10 is complete control), Rape: 0
[6]; [23]
  Rape plant response rating: 0
[7]; [17]
  Soybean plant response rating: 0
[7]; [18]
  Soybean plant response rating: 0
[7]; [19]
  Plant response rating, Soybean: 0
[7]; [20]
  Soybean plant response rating: 0
[7]; [21]
  Soybean plant response rating: 0
[7]; [22]
  Soybean plant response rating: 0
[7]; Rate 250 g/ha, Postemergence
  Plant response rating (0 to 10; 0 is no effect, 10 is complete control), Soybean: 0
[7]; [23]
  Soybean plant response rating: 1
[8]; [17]
  Sugarbeets plant response rating: 0
[8]; [18]
  Sugarbeets plant response rating: 0
[8]; [19]
  Plant response rating, Sugarbeets: 0
[8]; [20]
  Sugarbeets plant response rating: 0
[8]; [21]
  Sugarbeets plant response rating: 0
[8]; [22]
  Sugarbeets plant response rating: 0
[8]; Rate 250 g/ha, Postemergence
  Plant response rating (0 to 10; 0 is no effect, 10 is complete control), Sugarbeets: 0
[8]; [23]
  Sugarbeets plant response rating: 0
[9]; [17]
  Velvetleaf plant response rating: 0
[9]; [18]
  Velvetleaf plant response rating: 0
[9]; [19]
  Plant response rating, Velvetleaf: 0
[9]; [20]
  Velvetleaf plant response rating: 0
[9]; [21]
  Velvetleaf plant response rating: 0
[9]; [22]
  Velvetleaf plant response rating: 0
[9]; Rate 250 g/ha, Postemergence
  Plant response rating (0 to 10; 0 is no effect, 10 is complete control), Velvetleaf: 0
[9]; [23]
  Velvetleaf plant response rating: 0
[10]; [17]
  Wheat plant response rating: 0
[10]; [18]
  Wheat plant response rating: 0
[10]; [19]
  Plant response rating, Wheat: 0
[10]; [20]
  Wheat plant response rating: 0
[10]; [21]
  Wheat plant response rating: 0
[10]; [22]
  Wheat plant response rating: 0
[10]; Rate 250 g/ha, Postemergence
  Plant response rating (0 to 10; 0 is no effect, 10 is complete control), Wheat: 0
[10]; [23]
  Wheat plant response rating: 0
[11]; [17]
  Wild oats plant response rating: 0
[11]; [18]
  Wild oats plant response rating: 0
[11]; [19]
  Plant response rating, Wild oats: 0
[11]; [20]
  Wild oats plant response rating: 0
[11]; [21]
  Wild oats plant response rating: 0
[11]; [22]
  Wild oats plant response rating: 0
[11]; Rate 250 g/ha, Postemergence
  Plant response rating (0 to 10; 0 is no effect, 10 is complete control), Wild oats: 0
[11]; [23]
  Wild oats plant response rating: 0
[12]; [19]
  Plant response rating, Nutsedge: 0
[12]; [20]
  Nutsedge plant response rating: 0
[12]; [21]
  Nutsedge plant response rating: 0
[12]; Rate 250 g/ha, Postemergence
  Plant response rating (0 to 10; 0 is no effect, 10 is complete control), Nutsedge: 0
[12]; [23]
  Nutsedge plant response rating: 0
[13]; [24]
  Rice plant response rating: 0
[13]; [25]
  Rice plant response rating: 0
[13]; [26]
  Rice plant response rating: 0
[13]; [27]
  Rice plant response rating: 0
[14]; [24]
  S. Flatsedge plant response rating: 0
[14]; [25]
  S. Flatsedge plant response rating: 0
[14]; [26]
  S. Flatsedge plant response rating: 0
[14]; [27]
  S. Flatsedge plant response rating: 0
[15]; [24]
  Ducksalad plant response rating: 0
[15]; [25]
  Ducksalad plant response rating: 0
[15]; [26]
  Ducksalad plant response rating: 0
[15]; [27]
  Ducksalad plant response rating: 0
[16]; [24]
  Barnyardgrass plant response rating: 0
[16]; [25]
  Barnyardgrass plant response rating: 0
[16]; [26]
  Barnyardgrass plant response rating: 0
[16]; [27]
  Barnyardgrass plant response rating: 0
